Results from patent US4745124A, “Orally effective anti-hypertensive agents” (priority 1983, dated 1988).
Values joined by “and” are separate entries in the source; they are usually repeats but may differ in a detail not shown here. Equal entries are not always repeated. Blank lines part the entries; values can stand above or below the compound they belong to.

Tests used:
[1] = target: T1, angiotensin converting enzyme (human urinary ACE) (Homo sapiens, UniProt P12821); test: ACE activity assay, I50 (Example 216A); type: biochemical; conditions: human urinary ACE; Benzoyl-GlyHisLeu 1×10^-4 M; Hepes pH 8.0; 37° C; in vitro; read-out: I50
T1 construct: ACE purified from human urine; from tissue; host or cells: human urine (ultrafiltration and Sephacryl S-200, first eluting peak; prepared as in Ryan et al., Tissue and Cell 10, 555 (1978))

[2] = system: pressor effects of angiotensin I; test: oral effectiveness: blood pressure response to angiotensin I in anesthetized rats; type: in vivo, rat; conditions: for Blood pressure response to angiotensin I (% of control): oral 10 mg, Ex. 225; for Blood Pressure Response to 400 ng/kg of Angiotensin I: oral 17 μmol/kg, Ex. 228
Summary of the method: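 Fasted rats under pentobarbital anesthesia (50-60 mg/kg i.p.), ventilated, with carotid arterial pressure recorded; i.v. angiotensin I (80 ng, 160 ng or 400 ng/kg) or angiotensin II (80 ng) challenges repeated at timed intervals after oral gavage of compound (2-20 mg/kg, 10 mg, 17 or 23 μmol/kg) in aqueous NaHCO3.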

[3] = resistance of thioester compounds to alkaline hydrolysis; type: physicochemical
Source text: Therefore the observed inhibitory effects cannot be accounted for by postulating spontaneous hydrolysis of the thioester bond to regenerate the free sulfhydryl group.

[4] = system: pressor effects of angiotensin II; test: oral: blood pressure response to angiotensin II in anesthetized rats; type: in vivo, rat; conditions: 12 or 20 mg/kg
Description: Rats (210-290 g body weight) were fasted overnight and then anesthetized with intraperitoneal pentobarbital, 50-60 mg/kg. Tracheostomy was performed and the animals were ventilated mechanically. A cannula was inserted into a femoral vein for injection of angiotensin I or II, and a second cannula was inserted into a common carotid artery for direct measurement of arterial blood pressure. Heparin, 1,000 units, was injected via the femoral vein to prevent coagulation. Blood pressure was measured with a pressure transducer connected to a polygraph. The rats were injected with 80 ng of angiotensin I or angiotensin II in 20 μl of 0.9 g % NaCl; an amount of antiotensin I or II sufficient to raise mean arterial blood pressure by 27-40 mm Hg. After the responsiveness of a given rat to angiotensins I and II was established, compound (I), at 2 or 5 mg/kg (drug dissolved in 0.5 ml of H2 O plus 10 μl of 1N NaHCO3), was given via a stomach tube. At timed intervals, the effects of 80 ng of angiotensin I or angiotensin II on mean arterial blood pressure were tested.
Rats were prepared as described in Example 222. Compound (II) [N-benzoyl-L-phenylalanylthiopropanoyl)-L-proline] was given orally, via a stomach tube, at a dose of 12 mg/kg or 20 mg/kg. Compound (II) was dissolved in 0.5 ml of H2 O plus 10 μl of 1N NaHCO3. […]

[5] = system: pressor effects of angiotensin I; test: intravenous effectiveness: blood pressure response to angiotensin I in anesthetized rats; type: in vivo, rat; conditions: i.v. 2 μmol/kg, Ex. 229
Description: (§1) Anesthetized rats were prepared as described in Example 228. After the responsiveness of a given rat to angiotensin I was established, the named compound at 2 μmol/kg, in a volume of 15 μl of 0.01N sodium bicarbonate, was injected via a femoral vein. At timed intervals, the effects of angiotensin I, 400 ng/kg, on mean arterial blood pressure were tested. Results are shown below:
as §1, with “231.” for “228.”, “compound,” for “compound”
Anesthetized rats were prepared as described in Example 239. The animals were administered the named compound via a femoral vein in 15 μl of 0.01N sodium bicarbonate, after the control response to 400 ng/kg of angiotensin I was measured. […] The time required for recovery of one half of the lost responsiveness to angiotensin I, following injection of the named compound, was designated t1/2. […] Results are shown for two dose levels:
Anesthetized rats were prepared as described in Example 242. The named compound was administered intravenously via a femoral vein, at the stated dose, in 15 μl of 0.01N sodium bicarbonate. The response to intravenous administration was a rapid decrease in responsiveness to Angtiotensin I, 400 ng/kg, followed by a gradual recovery to the pretreatment level of responsiveness. The time required for recovery of one half the lost responsiveness to angiotensin I, following injection of the named compound, is designated t1/2. […] Results are shown for the three dose levels:
The intravenous effectiveness of the named compound was examined by following the procedure described in Example 244 except that 1 μmole/kg of the drug was given intravenously. The results are shown below:
The intravenous effectiveness of the named compound was examined by following the procedure described in Example 246 except that 1 μmole/Kg of the drug was given intravenously.

T1 sequence (P12821 30-1232 limits assumed): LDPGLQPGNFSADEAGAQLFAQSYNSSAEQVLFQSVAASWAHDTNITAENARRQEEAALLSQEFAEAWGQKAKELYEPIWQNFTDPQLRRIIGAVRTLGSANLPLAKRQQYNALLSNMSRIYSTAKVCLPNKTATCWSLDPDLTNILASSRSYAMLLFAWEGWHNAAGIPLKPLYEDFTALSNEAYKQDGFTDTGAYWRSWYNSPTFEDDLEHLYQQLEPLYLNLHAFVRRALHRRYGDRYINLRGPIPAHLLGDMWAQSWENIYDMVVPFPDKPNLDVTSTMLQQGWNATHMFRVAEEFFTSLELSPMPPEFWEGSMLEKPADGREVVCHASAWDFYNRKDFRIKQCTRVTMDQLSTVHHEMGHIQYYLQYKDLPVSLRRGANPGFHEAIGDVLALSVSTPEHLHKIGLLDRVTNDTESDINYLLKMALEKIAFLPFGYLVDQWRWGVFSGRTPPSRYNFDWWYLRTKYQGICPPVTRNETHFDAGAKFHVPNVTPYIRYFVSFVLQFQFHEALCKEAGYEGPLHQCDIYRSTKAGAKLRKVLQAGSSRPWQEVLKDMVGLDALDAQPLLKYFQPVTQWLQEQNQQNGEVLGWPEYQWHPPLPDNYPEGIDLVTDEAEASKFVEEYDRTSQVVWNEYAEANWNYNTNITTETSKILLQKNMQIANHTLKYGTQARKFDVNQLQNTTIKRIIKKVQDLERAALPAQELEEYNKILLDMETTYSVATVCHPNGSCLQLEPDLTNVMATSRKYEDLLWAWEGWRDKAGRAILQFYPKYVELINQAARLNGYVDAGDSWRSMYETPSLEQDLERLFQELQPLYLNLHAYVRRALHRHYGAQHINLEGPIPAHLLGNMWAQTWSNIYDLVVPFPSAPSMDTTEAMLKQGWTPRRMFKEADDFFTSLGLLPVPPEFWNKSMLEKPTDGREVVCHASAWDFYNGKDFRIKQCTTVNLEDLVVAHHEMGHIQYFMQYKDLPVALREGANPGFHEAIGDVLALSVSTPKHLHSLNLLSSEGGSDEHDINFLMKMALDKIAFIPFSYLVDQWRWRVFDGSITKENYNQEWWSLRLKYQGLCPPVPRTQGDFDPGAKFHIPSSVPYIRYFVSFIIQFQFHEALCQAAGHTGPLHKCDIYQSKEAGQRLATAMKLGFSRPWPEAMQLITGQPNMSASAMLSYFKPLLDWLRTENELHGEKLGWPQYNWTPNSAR

IC50 [1]: 3 nM
Compound: CC(SC(=O)C(Cc1ccccc1)NC(=O)c1ccccc1)C(=O)N1CC=C[C@H]1C(=O)O (stereo partly drawn) [(B), N-(2-benzoylphenylalanylthiopropanoyl)-L-3,4-dehydroproline]
Blood pressure response to angiotensin I (% of control) ([2]; 3 min): 100%
Blood pressure response to angiotensin I (% of control) ([2]; 9 min): 81%
Blood pressure response to angiotensin I (% of control) ([2]; 14 min): 74%
Blood pressure response to angiotensin I (% of control) ([2]; 24 min): 74%
Blood pressure response to angiotensin I (% of control) ([2]; 28 min): 74%
Blood pressure response to angiotensin I (% of control) ([2]; 34 min): 63%
Blood pressure response to angiotensin I (% of control) ([2]; 44 min): 56%
Blood pressure response to angiotensin I (% of control) ([2]; 54 min): 44%
Blood pressure response to angiotensin I (% of control) ([2]; 64 min): 56%
Blood pressure response to angiotensin I (% of control) ([2]; 85 min): 37%
Blood pressure response to angiotensin I (% of control) ([2]; 94 min): 44%
Blood pressure response to angiotensin I (% of control) ([2]; 104 min): 74%
Blood pressure response to angiotensin I (% of control) ([2]; 114 min): 56%
Blood pressure response to angiotensin I (% of control) ([2]; 146 min): 100%

IC50 [1]: 70 nM and 40 nM
Compound: CC(SC(=O)C(Cc1ccccc1)NC(=O)c1ccccc1)C(=O)N1CCC[C@H]1C(=O)O (stereo partly drawn) [Compound (II), 2-benzoylphenylalanylthiopropanoyl-L-proline]
resistance to alkaline hydrolysis [3]: surprisingly resistant to alkaline hydrolysis
Blood Pressure Response to 80 ng of Angiotensin I ([2]; oral 12 mg/kg, 6 min, Rat 1): 109 % of control
Blood Pressure Response to 80 ng of Angiotensin I ([2]; oral 12 mg/kg, 12 min, Rat 1): 80 % of control
Blood Pressure Response to 80 ng of Angiotensin I ([2]; oral 12 mg/kg, 30 min, Rat 1): 51 % of control
Blood Pressure Response to 80 ng of Angiotensin I ([2]; oral 12 mg/kg, 47 min, Rat 1): 71 % of control
Blood Pressure Response to 80 ng of Angiotensin I ([2]; oral 12 mg/kg, 56 min, Rat 1): 69 % of control
Blood Pressure Response to 80 ng of Angiotensin I ([2]; oral 12 mg/kg, 76 min, Rat 1): 63 % of control
Blood Pressure Response to 80 ng of Angiotensin I ([2]; oral 12 mg/kg, 150 min, Rat 1): 49 % of control
Blood Pressure Response to 80 ng of Angiotensin I ([2]; oral 12 mg/kg, 158 min, Rat 1): 57 % of control
Blood Pressure Response to 80 ng of Angiotensin I ([2]; oral 20 mg/kg, 6 min, Rat 2): 91 % of control
Blood Pressure Response to 80 ng of Angiotensin I ([2]; oral 20 mg/kg, 12 min, Rat 2): 70 % of control
Blood Pressure Response to 80 ng of Angiotensin I ([2]; oral 20 mg/kg, 23 min, Rat 2): 76 % of control
Blood Pressure Response to 80 ng of Angiotensin I ([2]; oral 20 mg/kg, 30 min, Rat 2): 76 % of control
Blood Pressure Response to 80 ng of Angiotensin I ([2]; oral 20 mg/kg, 56 min, Rat 2): 55 % of control
Blood Pressure Response to 80 ng of Angiotensin I ([2]; oral 20 mg/kg, 76 min, Rat 2): 40 % of control
Blood Pressure Response to 80 ng of Angiotensin I ([2]; oral 20 mg/kg, 95 min, Rat 2): 40 % of control
Blood Pressure Response to 80 ng of Angiotensin I ([2]; oral 20 mg/kg, 142 min, Rat 2): 76 % of control
Blood Pressure Response to 80 ng of Angiotensin I ([2]; oral 20 mg/kg, 158 min, Rat 2): 76 % of control
Blood Pressure Response to 80 ng of Angiotensin I ([2]; oral 20 mg/kg, 166 min, Rat 2): 76 % of control
Blood Pressure Response to 80 ng of Angiotensin I ([2]; oral 20 mg/kg, 176 min, Rat 2): 76 % of control
pressor effects of angiotensin II (specificity) [4]: did not inhibit

IC50 [1]: 15 nM
Compound: C[C@H](CSC(=O)[C@H](Cc1ccccc1)NC(=O)[C@H](CCCCN)NC(=O)C1CCCC1)C(=O)N1CCC[C@H]1C(=O)O [N-alpha-[3-(N-alpha-cyclopentylcarbonyl-L-lysyl-L-phenylalanylthio)-2-D-methylpropanoyl]-L-proline]
Blood Pressure Response to 400 ng/kg of Angiotensin I ([2]; 5 min): 59 % of Control
Blood Pressure Response to 400 ng/kg of Angiotensin I ([2]; 10 min): 44 % of Control
Blood Pressure Response to 400 ng/kg of Angiotensin I ([2]; 15 min): 44 % of Control
Blood Pressure Response to 400 ng/kg of Angiotensin I ([2]; 31 min): 44 % of Control
Blood Pressure Response to 400 ng/kg of Angiotensin I ([2]; 37 min): 38 % of Control
Blood Pressure Response to 400 ng/kg of Angiotensin I ([2]; 45 min): 44 % of Control
Blood Pressure Response to 400 ng/kg of Angiotensin I ([2]; 55 min): 44 % of Control
Blood Pressure Response to 400 ng/kg of Angiotensin I ([2]; 81 min): 36 % of Control
Blood Pressure Response to 400 ng/kg of Angiotensin I ([2]; 93 min): 36 % of Control
Blood Pressure Response to 400 ng/kg of Angiotensin I ([2]; 104 min): 38 % of Control
Blood Pressure Response to 400 ng/kg of Angiotensin I ([5]; 3 min): 8 % of Control
Blood Pressure Response to 400 ng/kg of Angiotensin I ([5]; 9 min): 15 % of Control
Blood Pressure Response to 400 ng/kg of Angiotensin I ([5]; 14 min): 23 % of Control
Blood Pressure Response to 400 ng/kg of Angiotensin I ([5]; 19 min): 23 % of Control
Blood Pressure Response to 400 ng/kg of Angiotensin I ([5]; 24 min): 33 % of Control
Blood Pressure Response to 400 ng/kg of Angiotensin I ([5]; 37 min): 41 % of Control
Blood Pressure Response to 400 ng/kg of Angiotensin I ([5]; 45 min): 46 % of Control
Blood Pressure Response to 400 ng/kg of Angiotensin I ([5]; 54 min): 46 % of Control
Blood Pressure Response to 400 ng/kg of Angiotensin I ([5]; 77 min): 46 % of Control
Blood Pressure Response to 400 ng/kg of Angiotensin I ([5]; 87 min): 51 % of Control
